In ChEMBL document CHEMBL3822440, “Semi-synthesis and antiproliferative evaluation of PEGylated pentacyclic triterpenes” (Eur J Med Chem, 2016):
The source made the active and inactive calls. The calls are words filed in the database; no cut-off is given here.

Columns and labels:
[1] = Induction of apoptosis in mouse B16F10 cells assessed as early apoptotic cells at cytotoxic IC50 after 72 hrs by Annexin V-FITC/propidium iodide staining based flow cytometry (reference value: 0.75 +/- 0.07%); format: functional, B16-F10
[2] = Induction of apoptosis in mouse B16F10 cells assessed as necrotic cells at cytotoxic IC50 after 72 hrs by Annexin V-FITC/propidium iodide staining based flow cytometry (reference value: 0.75 +/- 0.07%); format: functional, B16-F10
HT-29 [3] = experiment: Induction of apoptosis in human HT-29 cells assessed as live cells at cytotoxic IC50 after 72 hrs by Annexin V-FITC/propidium iodide staining based flow cytometry (reference value: 96.65 +/- 0.78%); format: functional
HT-29 [4] = experiment: Induction of apoptosis in human HT-29 cells assessed as early apoptotic cells at cytotoxic IC50 after 72 hrs by Annexin V-FITC/propidium iodide staining based flow cytometry (reference value: 1.65 +/- 0.07%); format: functional
HT-29 [5] = experiment: Induction of apoptosis in human HT-29 cells assessed as late apoptotic cells at cytotoxic IC50 after 72 hrs by Annexin V-FITC/propidium iodide staining based flow cytometry (reference value: 0.65 +/- 0.35%); format: functional
[6] = Cell cycle arrest in mouse B16F10 cells assessed as accumulation at G0/G1 phase at cytotoxic IC50 after 72 hrs by propidium iodide staining based flow cytometry (reference value: 50.69 +/- 0.61%); format: functional, B16-F10
HT-29 [7] = experiment: Cell cycle arrest in human HT-29 cells assessed as accumulation at G2/M phase at cytotoxic IC50 after 72 hrs by propidium iodide staining based flow cytometry (reference value: 6.23 +/- 1.7%); format: functional
HepG2 [8] = experiment: Cell cycle arrest in human HepG2 cells assessed as accumulation at G0/G1 phase at cytotoxic IC50 after 72 hrs by propidium iodide staining based flow cytometry (reference value: 39.41 +/- 1.56%); format: functional
HT-29 [9] = experiment: Disruption of mitochondrial membrane potential in human HT-29 cells assessed as rhodamine123 positive cells at cytotoxic IC50 after 72 hrs by propidium iodide staining based fluorescence spectroscopic analysis (reference value: 94.25 +/- 0.35%); format: functional
HepG2 [10] = experiment: Disruption of mitochondrial membrane potential in human HepG2 cells assessed as rhodamine123 negative cells at cytotoxic IC50 after 72 hrs by propidium iodide staining based fluorescence spectroscopic analysis (reference value: 11.7 +/- 6.8%); format: functional
B16-F10 [11] = experiment: Induction of apoptosis in mouse B16F10 cells assessed as nucleus containing nicked DNA at cytotoxic IC50 after 72 hrs by Hoechst staining based fluorescence microscopic analysis; format: functional, cell-based
B16-F10 [12] = experiment: Induction of apoptosis in mouse B16F10 cells assessed as bubble shaped region in cell surface at cytotoxic IC50 after 72 hrs by Hoechst staining based fluorescence microscopic analysis; format: functional
B16-F10 [13] = experiment: Induction of apoptosis in mouse B16F10 cells assessed as chromatin condensation at cytotoxic IC50 after 72 hrs by Hoechst staining based fluorescence microscopic analysis; format: functional, cell-based
B16-F10 [14] = experiment: Induction of apoptosis in mouse B16F10 cells assessed as loss of nuclear architecture at cytotoxic IC50 after 72 hrs by Hoechst staining based fluorescence microscopic analysis; format: functional, cell-based
HT-29 [15] = experiment: Induction of apoptosis in human HT-29 cells assessed as cell shrinkage at cytotoxic IC50 after 72 hrs by Hoechst staining based fluorescence microscopic analysis; format: functional
HT-29 [16] = experiment: Induction of apoptosis in human HT-29 cells assessed as bubble shaped region in cell surface at cytotoxic IC50 after 72 hrs by Hoechst staining based fluorescence microscopic analysis; format: functional
HepG2 [17] = experiment: Induction of apoptosis in human HepG2 cells assessed as nucleus containing nicked DNA at cytotoxic IC50 after 72 hrs by Hoechst staining based fluorescence microscopic analysis; format: functional, cell-based
HepG2 [18] = experiment: Induction of apoptosis in human HepG2 cells assessed as spherical cell shape at cytotoxic IC50 after 72 hrs by Hoechst staining based fluorescence microscopic analysis; format: functional

Row | Structure (SMILES) | Activity [1] | Activity [2] | Activity (HT-29 [3]) | Activity (HT-29 [4]) | Activity (HT-29 [5]) | Activity [6] | Activity (HT-29 [7]) | Activity (HepG2 [8]) | Activity (HT-29 [9]) | Activity (HepG2 [10]) | Activity (B16-F10 [11]) | Activity (B16-F10 [12]) | Activity (B16-F10 [13]) | Activity (B16-F10 [14]) | Activity (HT-29 [15]) | Activity (HT-29 [16]) | Activity (HepG2 [17]) | Activity (HepG2 [18])
1 | CC1(C)CC[C@]2(C(=O)NCCCOCCOCCOCCCN)CC[C@]3(C)C(=CC[C@@H]4[C@@]5(C)C[C@@H](O)[C@H](O)C(C)(C)[C@@H]5CC[C@]43C)[C@@H]2C1 | 60.25% | 0.2% | 61% | 31.25% | 7.6% | 66.66% | 13.1% | 40.22% | 63.1% | 40.85% | Active | Active | Active | Active | Active | Active | Active | Active
2 | COCCOCCOCC(=O)O[C@@H]1C[C@]2(C)[C@H]3CC=C4[C@@H]5CC(C)(C)CC[C@]5(C(=O)O)CC[C@@]4(C)[C@]3(C)CC[C@H]2C(C)(C)[C@H]1OC(=O)COCCOCCOC | 32.8% | 0% | 59.75% | 40.1% | 0.15% | 87.93% | 0.76% | 58.19% | 94.3% | 43.2% | Active | Active | Active | Active | Active | Active | Active | Active
